The assay concerns the target GST tagged IRAK4 (Homo sapiens (Human), UniProt Q9NWZ3). Kind of assay: IRAK4 Kinase Assay (IMAP fluorescence polarization). The assay is classed as biochemical. The note with it: 0.5 nM GST tagged IRAK4, 100 μM ATP, 30 minutes at 25° C. How it is done:
The kinase activity of IRAK4 is determined by its ability to catalyze the phosphorylation of a fluorescent polypeptide substrate. The extent of phosphorylation is measured using the IMAP technology (Molecular Devices) where the phosphorylated fluorescent substrate binds to the large M(III)-based nanoparticles which reduces the rotational speed of the substrate and thus increases its fluorescent polarization (FP).
20 μL reaction mixture contains 10 mM TriHCl, pH 7.2, 0.5 nM GST tagged IRAK4 (SignalChem), 100 nM fluorescent peptide substrate (RP7030, Molecular Devices), 100 μM ATP, 1 mM DDT, 1 mM MgCl2, and 0.01% Tween 20. The reaction is initiated by the addition of ATP. After incubation for 30 minutes at 25° C., 60 μL of Progressive IMAP Reagent (Molecular Devices) is added to stop the reaction. Change in RP7030's FP is determined by a FP reader (Analyst HT, LJL BioSystems).
Sequence of GST tagged IRAK4 (Q9NWZ3 whole entry): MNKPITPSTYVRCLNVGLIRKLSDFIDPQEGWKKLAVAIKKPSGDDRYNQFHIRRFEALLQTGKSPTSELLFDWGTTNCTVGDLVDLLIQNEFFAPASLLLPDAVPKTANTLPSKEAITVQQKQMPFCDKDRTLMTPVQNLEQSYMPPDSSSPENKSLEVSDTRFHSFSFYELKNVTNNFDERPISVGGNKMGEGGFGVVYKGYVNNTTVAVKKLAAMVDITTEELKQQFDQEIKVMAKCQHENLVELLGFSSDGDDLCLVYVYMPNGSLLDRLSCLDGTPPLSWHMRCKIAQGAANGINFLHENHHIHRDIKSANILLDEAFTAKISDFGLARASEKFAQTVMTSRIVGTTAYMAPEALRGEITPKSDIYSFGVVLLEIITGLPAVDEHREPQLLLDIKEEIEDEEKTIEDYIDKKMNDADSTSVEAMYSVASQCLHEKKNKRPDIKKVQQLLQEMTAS
As for `N#Cc1ccc2ncnc(N[C@H]3CC[C@H](N4CCCC(C(F)(F)F)C4)CC3)c2c1` (single isomer, unassigned) [Example 3-2, 4-({cis or trans-4-[(3R or S)-3-(trifluoromethyl)piperidin-1-yl]cyclohexyl}amino) quinazoline-6-carbonitrile], it took 0.033 µM to reach half-maximal inhibition (IC50).

Take `N#Cc1ccc2ncnc(NC3CCC(N4CCCC(C(F)(F)F)C4)CC3)c2c1` (single isomer, unassigned) [Example 3-3, 4-({cis or trans-4-[(3R or S)-3-(trifluoromethyl)piperidin-1-yl]cyclohexyl}amino) quinazoline-6-carbonitrile]: the IC50 worked out at 0.007 µM.

Molecule `N#Cc1ccc2ncnc(NC3CCC(N4CCCC(C(F)(F)F)C4)CC3)c2c1` (single isomer, unassigned) [Example 3-4, 4-({cis or trans-4-[(3R or S)-3-(trifluoromethyl)piperidin-1-yl]cyclohexyl}amino) quinazoline-6-carbonitrile] came in with an IC50 of 0.503 µM.

For the molecule `N#Cc1ccc2ncnc(NC3CCC(N4CCCC(C(F)(F)F)C4)CC3)c2c1` (single isomer, unassigned) [Example 3-5, 4-({cis or trans-4-[(3R or S)-3-(trifluoromethyl)piperidin-1-yl]cyclohexyl}amino) quinazoline-6-carbonitrile], the IC50 was found to be 0.908 µM.

`N#Cc1ccc2ncnc(N[C@H]3CC[C@H](N4CCOC(CO)C4)CC3)c2c1` (single isomer, unassigned) [Example 3-11, 4-({trans-4-[(2R or 2S)-2-(hydroxymethyl)morpholin-4-yl]cyclohexyl}amino) quinazoline-6-carbonitrile] came in with an IC50 of 0.007 µM.

In turn, `N#Cc1ccc2ncnc(N[C@H]3CC[C@H](N4CCOC(CO)C4)CC3)c2c1` (single isomer, unassigned) [Example 3-12, 4-({trans-4-[(2R or 2S)-2-(hydroxymethyl)morpholin-4-yl]cyclohexyl}amino) quinazoline-6-carbonitrile] registered an IC50 of 0.006 µM.

`CC1CN([C@H]2CC[C@H](Nc3ncnc4ccc(C#N)cc34)CC2)CC(C)O1` (single isomer, unassigned) [Example 3-14, 4-({trans-4-[(2S,6S or 2R,6R)-2,6-dimethylmorpholin-4-yl]cyclohexyl}amino) quinazoline-6-carbonitrile] came in with an IC50 of 0.033 µM.

With `CC1CN([C@H]2CC[C@H](Nc3ncnc4ccc(C#N)cc34)CC2)CC(C)O1` (single isomer, unassigned) [Example 3-15, 4-({trans-4-[2S,6S or 2R,6R)-2,6-dimethylmorpholin-4-yl]cyclohexyl}amino) quinazoline-6-carbonitrile], the 50% inhibitory concentration (IC50) was found to be 0.058 µM.

`CC1CN([C@H]2CC[C@H](Nc3ncnc4ccc(C#N)cc34)CC2)CCO1` (single isomer, unassigned) [Example 3-16, 4-({trans-4-[(2S or 2R)-2-methylmorpholin-4-yl]cyclohexyl}amino) quinazoline-6-carbonitrile] showed a concentration for half-maximal inhibition (IC50) of 0.007 µM.

`CC1CN([C@H]2CC[C@H](Nc3ncnc4ccc(C#N)cc34)CC2)CCO1` (single isomer, unassigned) [Example 3-17, 4-({trans-4-[(2S or 2R)-2-methylmorpholin-4-yl]cyclohexyl}amino) quinazoline-6-carbonitrile] registered a 50% inhibitory concentration (IC50) of 0.004 µM.

In turn, `N#Cc1ccc2ncnc(N[C@H]3CC[C@H](N4CCCC(CN5CCOCC5)C4)CC3)c2c1` (single isomer, unassigned) [Example 3-41, 4-({trans-4-[(3R or 3S)-3-(morpholin-4-ylmethyl)piperidin-1-yl]cyclohexyl}amino) quinazoline-6-carbonitrile] gave an IC50 of 0.07 µM.

Molecule `N#Cc1ccc2ncnc(N[C@H]3CC[C@H](N4CCCC(CN5CCOCC5)C4)CC3)c2c1` (single isomer, unassigned) [Example 3-42, 4-({trans-4-[(3R or 3S)-3-(morpholin-4-ylmethyl)piperidin-1-yl]cyclohexyl}amino) quinazoline-6-carbonitrile] came in with an IC50 of 0.005 µM.

`N#Cc1ccc2ncnc(N[C@H]3CC[C@H](N4CCOC(C(F)(F)F)C4)CC3)c2c1` (single isomer, unassigned) [Example 3-48, 4-({trans-4-[(2R or 2S)-2-(trifluoromethyl)morpholin-4-yl]cyclohexyl}amino) quinazoline-6-carbonitrile] displayed an IC50 of 0.256 µM.

The molecule `N#Cc1ccc2ncnc(N[C@H]3CC[C@H](N4CCOC(C(F)(F)F)C4)CC3)c2c1` (single isomer, unassigned) [Example 3-49, 4-({trans-4-[(2R or 2S)-2-(trifluoromethyl)morpholin-4-yl]cyclohexyl}amino) quinazoline-6-carbonitrile] yielded an IC50 of 0.131 µM.

On to `CC1CC(N2CCOCC2)CCC1Nc1ncnc2ccc(C#N)cc12` (single isomer, unassigned) [Example 8-1, 4-{[(1R,2R,4R or 1S,2S,4S)-2-methyl-4-(morpholin-4-yl)cyclohexyl]amino}quinazoline-6-carbonitrile], for which 0.014 µM corresponded to half-maximal inhibition (IC50).

Molecule `CC1CC(N2CCC(F)CC2)CCC1Nc1ncnc2ccc(C#N)cc12` (single isomer, unassigned) [Example 8-2, 4-{[(1S,2S,4S or 1R,2R,4R)-4-(4-fluoropiperidin-1-yl)-2-methylcyclohexyl]amino} quinazoline-6-carbonitrile] returned an IC50 of 0.01 µM.

Regarding `CC1CC(N2CCOCC2)CCC1Nc1ncnc2ccc(C#N)cc12` (single isomer, unassigned) [Example 8-3, 4-{[(1S,2R,4S or 1R,2S,4R)-2-methyl-4-(morpholin-4-yl)cyclohexyl]amino} quinazoline-6-carbonitrile], the half-inhibitory concentration (IC50) stood at 0.026 µM.

`N#Cc1ccc2ncnc(N[C@H]3CC[C@H](N)CC3)c2c1` [Example 1-1, 4-[(Trans-4-aminocyclohexyl)amino]quinazoline-6-carbonitrile] showed an IC50 of 0.031 µM.

Molecule `N[C@H]1CC[C@H](Nc2ncnc3ccc(Br)cc23)CC1` [Example 1-2, trans-N-(6-bromoquinazolin-4-yl)cyclohexane-1,4-diamine] registered a half-maximal inhibitory concentration (IC50) of 0.027 µM.

The molecule `Brc1ccc2ncnc(O[C@H]3CC[C@H](N4CCOCC4)CC3)c2c1` [Example 2-1, 6-Bromo-4-{[trans-4-(morpholin-4-yl)cyclohexyl]oxy}quinazoline] registered an IC50 of 0.04 µM.

In turn, `Brc1ccc2ncnc(N[C@H]3CC[C@H](N4CCOCC4)CC3)c2c1` [Example 2-2, 6-Bromo-N-[trans-4-(morpholin-4-yl)cyclohexyl]quinazolin-4-amine] displayed an IC50 of 0.005 µM.

Take `COc1cc2ncnc(N[C@H]3CC[C@H](N(C)C)CC3)c2cc1OC` [Example 2-3, trans-N′-(6,7-dimethoxyquinazolin-4-yl)-N,N-dimethylcyclohexane-1,4-diamine]: the IC50 stood at 7.42 µM.

`CN(C)[C@H]1CC[C@H](Nc2ncnc3cc(F)c(F)cc23)CC1` [Example 2-4, trans-N′-(6,7-difluoroquinazolin-4-yl)-N,N-dimethylcyclohexane-1,4-diamine]: the half-inhibitory concentration (IC50) was 0.303 µM.

Take `CN(C)[C@H]1CC[C@H](Nc2ncnc3ccc(C#N)cc23)CC1` [Example 2-5, 4-{[trans-4-(dimethylamino)cyclohexyl]amino}quinazoline-6-carbonitrile]: the midpoint of inhibition, the IC50, lay at 0.007 µM.

With `CN(C)[C@H]1CC[C@H](Nc2ncnc3ccc(Br)cc23)CC1` [Example 2-6, trans-N′-(6-bromoquinazolin-4-yl)-N,N-dimethylcyclohexane-1,4-diamine], 0.009 µM corresponded to half-maximal inhibition (IC50).

On to `N#Cc1ccc2ncnc(N[C@H]3CC[C@H](N4CCOCC4)CC3)c2c1` [Example 2-7, 4-{[trans-4-(morpholin-4-yl)cyclohexyl]amino} quinazoline-6-carbonitrile], for which the IC50 was found to be 0.006 µM.

Molecule `COc1ccc2ncnc(N[C@H]3CC[C@H](N4CCOCC4)CC3)c2c1` [Example 2-8, 6-methoxy-N-[trans-4-(morpholin-4-yl)cyclohexyl]quinazolin-4-amine] registered an IC50 of 0.016 µM.

For the molecule `Fc1ccc2ncnc(N[C@H]3CC[C@H](N4CCOCC4)CC3)c2c1` [Example 2-9, 6-fluoro-N-[trans-4-(morpholin-4-yl)cyclohexyl]quinazolin-4-amine], the half-inhibitory concentration (IC50) is 0.113 µM.

Consider `CC(C)Oc1ccc2ncnc(N[C@H]3CC[C@H](N4CCOCC4)CC3)c2c1` [Example 2-10, N-[trans-4-(morpholin-4-yl)cyclohexyl]-6-(propan-2-yloxy)quinazolin-4-amine], for which the midpoint of inhibition, the IC50, lay at 0.082 µM.

In the case of `Fc1cc2ncnc(N[C@H]3CC[C@H](N4CCOCC4)CC3)c2cc1Br` [Example 2-11, 6-bromo-7-fluoro-N-[trans-4-(morpholin-4-yl)cyclohexyl]quinazolin-4-amine], the IC50 was found to be 0.015 µM.

Molecule `COc1cc2c(N[C@H]3CC[C@H](N4CCOCC4)CC3)ncnc2cc1F` [Example 2-12, 7-fluoro-6-methoxy-N-[trans-4-(morpholin-4-yl)cyclohexyl]quinazolin-4-amine] came in with an IC50 of 0.058 µM.

For the molecule `Clc1ccc2ncnc(N[C@H]3CC[C@H](N4CCOCC4)CC3)c2c1` [Example 2-13, 6-chloro-N-[trans-4-(morpholin-4-yl)cyclohexyl]quinazolin-4-amine], the IC50 was 0.006 µM.

As for `CN(C)[C@H]1CC[C@H](Nc2ncnc3ccc(OCC#N)cc23)CC1` [Example 2-15], the concentration for half-maximal inhibition (IC50) worked out at 0.012 µM.

For `CN(C)[C@H]1CC[C@H](Nc2ncnc3ccc(OCCCC#N)cc23)CC1` [Example 2-16, 4-[(4-{[trans-4-(dimethylamino)cyclohexyl]amino}quinazolin-6-yl)oxy]butanenitrile], the IC50 is 0.734 µM.

Usually IC50 stands for the midpoint of a concentration-inhibition curve. A lower IC50 goes with higher potency.
